Laboratory results as given in patent publication US11000033B2, “Ketone or oxime compound, and herbicide” (NISSAN CHEMICAL CORPORATION, priority 2014, dated 2021).

Tests used:
Assay type in all cases: in vivo
[1] = tested on: Veronica persica; test: Test Example 5: herbicidal effect by foliage application, plastic box (symbol R); details: 320 g/ha, 3 weeks after application
In short: (§1)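 Sowing in sterilized diluvial soil, 14 days' greenhouse growth at 25° C. to 30° C., then uniform small-sprayer foliar application of aqueous emulsion dilution; plants scored three weeks afterwards.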

[2] = tested on: Avena fatua; test: Test Example 5: herbicidal effect by foliage application, plastic box (symbol I); details: 320 g/ha, 3 weeks after application
In short: as §1

[3] = tested on: Galium spurium; test: Test Example 5: herbicidal effect by foliage application, plastic box (symbol Q); details: 320 g/ha, 3 weeks after application
In short: as §1

[4] = tested on: Stellaria media; test: Test Example 4: herbicidal effect by soil treatment (symbol P); details: 320 g/ha
In short: (§2)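 Seeds were sown in sterilized diluvial soil, covered with about 1.5 cm of soil, and the soil surface was sprayed with a water-diluted emulsion of the compound at a predetermined rate. Plants grew in a greenhouse at 25° C. to 30° C.; effects were scored visually 3 weeks after application.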

[5] = tested on: Veronica persica; test: Test Example 4: herbicidal effect by soil treatment (symbol R); details: 320 g/ha
In short: as §2

[6] = tested on: Stellaria media; test: Test Example 5: herbicidal effect by foliage application, plastic box (symbol P); details: 320 g/ha, 3 weeks after application
In short: as §1

[7] = tested on: Echinochloa crus-galli var. crus-galli; test: Test Example 4: herbicidal effect by soil treatment (symbol H); details: 320 g/ha
In short: as §2

[8] = tested on: Alopecurus myosuroides; test: Test Example 4: herbicidal effect by soil treatment (symbol J); details: 320 g/ha
In short: as §2

[9] = tested on: beet; test: Test Example 5: effect on crop by foliage application, plastic box (symbol f); details: 320 g/ha, 3 weeks after application
In short: (§3)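 Sterilized diluvial soil, plastic box (21 × 13 × 7 cm); spot sowing, ~1.5 cm soil cover; greenhouse 25–30° C.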

[10] = tested on: rice plant; test: Test Example 5: effect on crop by foliage application, plastic box (symbol b); details: 320 g/ha, 3 weeks after application
In short: as §3

[11] = tested on: Galium spurium; test: Test Example 4: herbicidal effect by soil treatment (symbol Q); details: 320 g/ha
In short: as §2

[12] = tested on: Abutilon theophrasti; test: Test Example 5: herbicidal effect by foliage application, plastic box (symbol M); details: 320 g/ha, 3 weeks after application
In short: as §1

[13] = tested on: Lolium multiflorum Lam.; test: Test Example 4: herbicidal effect by soil treatment (symbol K); details: 320 g/ha
In short: as §2

[14] = tested on: Digitaria ciliaris; test: Test Example 5: herbicidal effect by foliage application, plastic box (symbol F); details: 320 g/ha, 3 weeks after application
In short: as §1

[15] = tested on: Digitaria ciliaris; test: Test Example 4: herbicidal effect by soil treatment (symbol F); details: 320 g/ha
In short: as §2

[16] = tested on: rice; test: Test Example 4: effect on crop by soil treatment (symbol b); details: 320 g/ha
In short: (§4)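 The test used sterilized diluvial soil. Seed was set down in spots and overlaid with about 1.5 cm of soil before growth in a greenhouse kept at 25° C. to 30° C.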

[17] = tested on: directly sowed rice plant; test: Test Example 3: effect on crop by foliage application, Wagner pot (symbol b); details: application herbicide amount 320 g/ha
In short: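 Steps: fill a 1/10000-are Wagner pot with alluvial soil; add water and mix to submerge at 0.1–0.5 cm depth; sow rice plus Echinochloa crus-galli var. crus-galli, Leptochloa chinensis and Cyperus difformis; grow in a 25–30 °C greenhouse.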

[18] = tested on: Chenopodium album; test: Test Example 5: herbicidal effect by foliage application, plastic box (symbol O); details: 320 g/ha, 3 weeks after application
In short: as §1

[19] = tested on: wheat; test: Test Example 5: effect on crop by foliage application, plastic box (symbol e); details: 320 g/ha, 3 weeks after application
In short: as §3

[20] = tested on: Setaria viridis; test: Test Example 5: herbicidal effect by foliage application, plastic box (symbol G); details: 320 g/ha, 3 weeks after application
In short: as §1

[21] = tested on: soybean; test: Test Example 4: effect on crop by soil treatment (symbol d); details: 320 g/ha
In short: as §4

[22] = tested on: rapeseed; test: Test Example 4: effect on crop by soil treatment (symbol g); details: 320 g/ha
In short: as §4

[23] = tested on: beet; test: Test Example 4: effect on crop by soil treatment (symbol f); details: 320 g/ha
In short: as §4

[24] = tested on: Apera spica-venti; test: Test Example 5: herbicidal effect by foliage application, plastic box (symbol L); details: 320 g/ha, 3 weeks after application
In short: as §1

[25] = tested on: corn; test: Test Example 4: effect on crop by soil treatment (symbol c); details: 320 g/ha
In short: as §4

Structure (SMILES): CON=C(C)CC1CC(OC(=O)CSc2ccccc2)=C(c2c(C)cc(C)cc2C)C1=O (stereo not drawn) [1-134]
- R: Veronica persica, herbicidal effect (criteria 0-5) [1]: 1 (Herbicidal ratio of 5% or higher and lower than 20%)
- I: Avena fatua, herbicidal effect (criteria 0-5) [2]: 5 (Herbicidal ratio of 90% or more (almost completely withered))
- Q: Galium spurium, herbicidal effect (criteria 0-5) [3]: 4 (Herbicidal ratio of 70% or higher and lower than 90%)
- P: Stellaria media, herbicidal effect grade [4]: 0 (Herbicidal ratio of 5% or lower (almost no effect))
- R: Veronica persica, herbicidal effect grade [5]: 0 (Herbicidal ratio of 5% or lower (almost no effect))
- P: Stellaria media, herbicidal effect (criteria 0-5) [6]: 2 (Herbicidal ratio of 20% or higher and lower than 40%)
- H: Echinochloa crus-galli var. crus-galli, herbicidal effect grade [7]: 5 (Herbicidal ratio of 90% or more (almost completely withered))
- J: Alopecurus myosuroides, herbicidal effect grade [8]: 5 (Herbicidal ratio of 90% or more (almost completely withered))
- f: beet, effect on crop (criteria 0-5) [9]: 0 (Herbicidal ratio of 5% or lower (almost no effect))
- b: directly sowed rice plant, effect on crop (criteria 0-5) [10]: 5 (Herbicidal ratio of 90% or more (almost completely withered))
- Q: Galium spurium, herbicidal effect grade [11]: 0 (Herbicidal ratio of 5% or lower (almost no effect))
- M: Abutilon theophrasti, herbicidal effect (criteria 0-5) [12]: 2 (Herbicidal ratio of 20% or higher and lower than 40%)
- K: Lolium multiflorum Lam., herbicidal effect grade [13]: 5 (Herbicidal ratio of 90% or more (almost completely withered))
- F: Digitaria ciliaris, herbicidal effect (criteria 0-5) [14]: 5 (Herbicidal ratio of 90% or more (almost completely withered))
- F: Digitaria ciliaris, herbicidal effect grade [15]: 5 (Herbicidal ratio of 90% or more (almost completely withered))
- b: directly sowed rice plant, effect grade on crop [16]: 5 (Herbicidal ratio of 90% or more (almost completely withered))
- effect on crop b (directly sowed rice plant), grade 0-5 [17]: 5 (Herbicidal ratio of 90% or more (almost completely withered))
- O: Chenopodium album, herbicidal effect (criteria 0-5) [18]: 4 (Herbicidal ratio of 70% or higher and lower than 90%)
- e: wheat, effect on crop (criteria 0-5) [19]: 5 (Herbicidal ratio of 90% or more (almost completely withered))
- G: Setaria viridis, herbicidal effect (criteria 0-5) [20]: 5 (Herbicidal ratio of 90% or more (almost completely withered))
- d: soybean, effect grade on crop [21]: 0 (Herbicidal ratio of 5% or lower (almost no effect))
- g: rapeseed, effect grade on crop [22]: 0 (Herbicidal ratio of 5% or lower (almost no effect))
- f: beet, effect grade on crop [23]: 0 (Herbicidal ratio of 5% or lower (almost no effect))
- L: Apera spica-venti, herbicidal effect (criteria 0-5) [24]: 5 (Herbicidal ratio of 90% or more (almost completely withered))
- c: corn, effect grade on crop [25]: 5 (Herbicidal ratio of 90% or more (almost completely withered))

Structure (SMILES): CC(CC1CC(O)=C(c2c(C)cc(C)cc2C)C1=O)=NOCC(C)Br (stereo not drawn) [1-135]
- R: Veronica persica, herbicidal effect (criteria 0-5) [1]: 3 (Herbicidal ratio of 40% or higher and lower than 70%)
- I: Avena fatua, herbicidal effect (criteria 0-5) [2]: 5 (Herbicidal ratio of 90% or more (almost completely withered))
- Q: Galium spurium, herbicidal effect (criteria 0-5) [3]: 0 (Herbicidal ratio of 5% or lower (almost no effect))
- P: Stellaria media, herbicidal effect grade [4]: 0 (Herbicidal ratio of 5% or lower (almost no effect))
- R: Veronica persica, herbicidal effect grade [5]: 2 (Herbicidal ratio of 20% or higher and lower than 40%)
- P: Stellaria media, herbicidal effect (criteria 0-5) [6]: 1 (Herbicidal ratio of 5% or higher and lower than 20%)
- H: Echinochloa crus-galli var. crus-galli, herbicidal effect grade [7]: 5 (Herbicidal ratio of 90% or more (almost completely withered))
- J: Alopecurus myosuroides, herbicidal effect grade [8]: 5 (Herbicidal ratio of 90% or more (almost completely withered))
- f: beet, effect on crop (criteria 0-5) [9]: 0 (Herbicidal ratio of 5% or lower (almost no effect))
- b: directly sowed rice plant, effect on crop (criteria 0-5) [10]: 5 (Herbicidal ratio of 90% or more (almost completely withered))
- Q: Galium spurium, herbicidal effect grade [11]: 0 (Herbicidal ratio of 5% or lower (almost no effect))
- M: Abutilon theophrasti, herbicidal effect (criteria 0-5) [12]: 3 (Herbicidal ratio of 40% or higher and lower than 70%)
- K: Lolium multiflorum Lam., herbicidal effect grade [13]: 5 (Herbicidal ratio of 90% or more (almost completely withered))
- F: Digitaria ciliaris, herbicidal effect (criteria 0-5) [14]: 5 (Herbicidal ratio of 90% or more (almost completely withered))
- F: Digitaria ciliaris, herbicidal effect grade [15]: 5 (Herbicidal ratio of 90% or more (almost completely withered))
- b: directly sowed rice plant, effect grade on crop [16]: 5 (Herbicidal ratio of 90% or more (almost completely withered))
- effect on crop b (directly sowed rice plant), grade 0-5 [17]: 5 (Herbicidal ratio of 90% or more (almost completely withered))
- O: Chenopodium album, herbicidal effect (criteria 0-5) [18]: 5 (Herbicidal ratio of 90% or more (almost completely withered))
- e: wheat, effect on crop (criteria 0-5) [19]: 2 (Herbicidal ratio of 20% or higher and lower than 40%)
- G: Setaria viridis, herbicidal effect (criteria 0-5) [20]: 5 (Herbicidal ratio of 90% or more (almost completely withered))
- d: soybean, effect grade on crop [21]: 0 (Herbicidal ratio of 5% or lower (almost no effect))
- g: rapeseed, effect grade on crop [22]: 2 (Herbicidal ratio of 20% or higher and lower than 40%)
- f: beet, effect grade on crop [23]: 0 (Herbicidal ratio of 5% or lower (almost no effect))
- L: Apera spica-venti, herbicidal effect (criteria 0-5) [24]: 5 (Herbicidal ratio of 90% or more (almost completely withered))
- c: corn, effect grade on crop [25]: 0 (Herbicidal ratio of 5% or lower (almost no effect))

Structure (SMILES): CC(CC1CC(O)=C(c2c(C)cc(C)cc2C)C1=O)=NOCc1ccc(F)cc1 (stereo not drawn) [1-136]
- R: Veronica persica, herbicidal effect (criteria 0-5) [1]: 2 (Herbicidal ratio of 20% or higher and lower than 40%)
- I: Avena fatua, herbicidal effect (criteria 0-5) [2]: 4 (Herbicidal ratio of 70% or higher and lower than 90%)
- Q: Galium spurium, herbicidal effect (criteria 0-5) [3]: 4 (Herbicidal ratio of 70% or higher and lower than 90%)
- P: Stellaria media, herbicidal effect grade [4]: 0 (Herbicidal ratio of 5% or lower (almost no effect))
- R: Veronica persica, herbicidal effect grade [5]: 0 (Herbicidal ratio of 5% or lower (almost no effect))
- P: Stellaria media, herbicidal effect (criteria 0-5) [6]: 1 (Herbicidal ratio of 5% or higher and lower than 20%)
- H: Echinochloa crus-galli var. crus-galli, herbicidal effect grade [7]: 5 (Herbicidal ratio of 90% or more (almost completely withered))
- J: Alopecurus myosuroides, herbicidal effect grade [8]: 5 (Herbicidal ratio of 90% or more (almost completely withered))
- f: beet, effect on crop (criteria 0-5) [9]: 0 (Herbicidal ratio of 5% or lower (almost no effect))
- b: directly sowed rice plant, effect on crop (criteria 0-5) [10]: 5 (Herbicidal ratio of 90% or more (almost completely withered))
- Q: Galium spurium, herbicidal effect grade [11]: 0 (Herbicidal ratio of 5% or lower (almost no effect))
- M: Abutilon theophrasti, herbicidal effect (criteria 0-5) [12]: 3 (Herbicidal ratio of 40% or higher and lower than 70%)
- K: Lolium multiflorum Lam., herbicidal effect grade [13]: 5 (Herbicidal ratio of 90% or more (almost completely withered))
- F: Digitaria ciliaris, herbicidal effect (criteria 0-5) [14]: 5 (Herbicidal ratio of 90% or more (almost completely withered))
- F: Digitaria ciliaris, herbicidal effect grade [15]: 5 (Herbicidal ratio of 90% or more (almost completely withered))
- b: directly sowed rice plant, effect grade on crop [16]: 2 (Herbicidal ratio of 20% or higher and lower than 40%)
- effect on crop b (directly sowed rice plant), grade 0-5 [17]: 5 (Herbicidal ratio of 90% or more (almost completely withered))
- O: Chenopodium album, herbicidal effect (criteria 0-5) [18]: 0 (Herbicidal ratio of 5% or lower (almost no effect))
- e: wheat, effect on crop (criteria 0-5) [19]: 3 (Herbicidal ratio of 40% or higher and lower than 70%)
- G: Setaria viridis, herbicidal effect (criteria 0-5) [20]: 5 (Herbicidal ratio of 90% or more (almost completely withered))
- d: soybean, effect grade on crop [21]: 0 (Herbicidal ratio of 5% or lower (almost no effect))
- g: rapeseed, effect grade on crop [22]: 3 (Herbicidal ratio of 40% or higher and lower than 70%)
- f: beet, effect grade on crop [23]: 0 (Herbicidal ratio of 5% or lower (almost no effect))
- L: Apera spica-venti, herbicidal effect (criteria 0-5) [24]: 5 (Herbicidal ratio of 90% or more (almost completely withered))
- c: corn, effect grade on crop [25]: 0 (Herbicidal ratio of 5% or lower (almost no effect))
